Consider 16 substances from patent US20200038478A1, “POLYPEPTIDE AND COMPOSITION THEREOF FOR TREATING DISEASES OF METABOLIC SYSTEM” (WUHAN GRECTECH CO., LTD., priority 2017, published 2020).

Bridge positions count the residues as written; N and C are the ends. Square brackets hold non-standard residues; d marks the D form. Ends that are not written are not given here. Met(O) = CS(=O)CC[C@H](N)C(=O)O

Holding throughout (type): in vivo, Kunming white mice
Test [1] has as its system normal mice. As to the kind of experiment: Hypoglycemic effect of polypeptides on normal mice after tail vein injection (Example 4). The conditions noted are these: 1 mg/mL at 0.05 ml/10 g, single tail vein injection; for Blood glucose level prior to administration: baseline.
The test system of test [2] is normal mice. As to the kind of experiment: Hypoglycemic effect of synthetic polypeptides on normal mice after subcutaneous injection (Example 9). The settings on record: 1 mg/mL at 0.05 ml/10 g, single subcutaneous injection on the back; for Blood glucose level prior to administration: baseline.
For test [3], the system named is normal mice. Nature of the test: Hypoglycemic effect on normal mice after tail vein, subcutaneous and intramuscular injection (Example 8). The conditions noted are these: 1 mg/mL at 0.05 ml/10 g once; for Blood glucose level prior to administration: baseline.
Test [4] concerns normal mice. As to the kind of experiment: Hypoglycemic effect on normal mice after subcutaneous injection on the back (Example 5). The conditions noted are these: for Blood glucose level at 15 min after administration / Blood glucose level at 30 min after administration / Blood glucose level at 45 min after administration / Blood glucose level at 60 min after administration / Blood glucose level prior to administration: single subcutaneous injection on the back; for Blood glucose level prior to administration: baseline.

The mark [5] stands for this setting: Group B, subcutaneous injection on the back.
Where [6] appears, read: Group C, intramuscular injection in the lateral thigh.
[7] abbreviates: Group A high-dose, 1 mg/mL at 0.10 ml/10 g.
Where [8] appears, read: Group B medium-dose, 1 mg/mL at 0.05 ml/10 g.
The mark [9] stands for this setting: Group C low-dose, 1 mg/mL at 0.025 ml/10 g.

For “ASCNGVCSPFEMPPCGSSACRCIPVGLLIGYCRNPSG (disulfide 15-32, 3-20, 7-22; listed as Pisum sativum) [SEQ ID No. 5]”, in the test with normal mice [1], the “Blood glucose level at 15 min after administration” value (shortened to “Blood glucose level at 15 min”) is listed as 6.3 ± 0.3 mmol/L, the “Blood glucose level at 30 min after administration” value (“Blood glucose level at 30 min” for short) was found to be 5.3 ± 0.3 mmol/L and the “Blood glucose level prior to administration” value (“Blood glucose level prior” below) was 7.1 ± 0.5 mmol/L.
As for “ISCNGVCSPFEMPPCGTSLCRCIPAGLVVGYCRNPSG (disulfide 15-32, 3-20, 7-22) [SEQ ID No. 50]”, in the test with normal mice [2], the “Blood glucose level at 15 min” value turned out to be 6.2 ± 0.5 mmol/L, the “Blood glucose level at 30 min” value was found to be 5.3 ± 0.2 mmol/L, the “Blood glucose level at 45 min after administration” value (shortened to “Blood glucose level at 45 min”) is 4.6 ± 0.3 mmol/L and the “Blood glucose level at 60 min after administration” value (shortened to “Blood glucose level at 60 min”) is reported as 3.2 ± 0.3 mmol/L. The “Blood glucose level prior” value in the test on normal mice [2] turned out to be 7.3 ± 0.6 mmol/L.
On the same counts, the results for “ISCNGVCSPFDIPPCGTPLCRCIPAGLFVGKCRNPYG (disulfide 15-32, 3-20, 7-22) [SEQ ID No. 36]” are 6.2 ± 0.4 mmol/L, 4.3 ± 0.3 mmol/L, 3.5 ± 0.2 mmol/L, 2.8 ± 0.1 mmol/L and 7.1 ± 0.5 mmol/L.
For “VSCNGVCSPFEIPPCGSPLCRCIPAGLVIGNCRNPYG (disulfide 15-32, 3-20, 7-22) [SEQ ID No. 63]” the same measures were 5.9 ± 0.5 mmol/L, 4.6 ± 0.4 mmol/L, 3.2 ± 0.3 mmol/L, 3.5 ± 0.2 mmol/L and 6.6 ± 0.6 mmol/L.
“ISCNGVCSPFDMPPCGSPACRCIPAGLLIGYCRNPSG (disulfide 15-32, 3-20, 7-22) [SEQ ID No. 38]”: in the test on normal mice [2], the “Blood glucose level at 15 min” value came out at 4.9 ± 0.3 mmol/L, the “Blood glucose level at 30 min” value is on record as 3.6 ± 0.4 mmol/L, the “Blood glucose level at 45 min” value is reported as 3.1 ± 0.2 mmol/L and the “Blood glucose level at 60 min” value was found to be 3.5 ± 0.3 mmol/L. Besides, the “Blood glucose level prior” value in the test on normal mice [2] came out at 6.3 ± 0.5 mmol/L.
In the case of “VSCNGVCSPFDIPPCGTPACRCIPYGLFVGNCRNPYG (disulfide 15-32, 3-20, 7-22) [SEQ ID No. 52]”, in the test on normal mice [2], the “Blood glucose level at 15 min” value is reported as 6.4 ± 0.4 mmol/L, the “Blood glucose level at 30 min” value is listed as 5.4 ± 0.5 mmol/L, the “Blood glucose level at 45 min” value came out at 4.3 ± 0.3 mmol/L and the “Blood glucose level at 60 min” value was 2.9 ± 0.3 mmol/L. In addition, the “Blood glucose level prior” value in the test with normal mice [2] came out at 7.1 ± 0.3 mmol/L.
For “ISCNGVCSPFEIPPCGSSLCRCIPAGLLVGKCRNPSG (disulfide 15-32, 3-20, 7-22) [SEQ ID No. 44]” the same measures were 6.3 ± 0.3 mmol/L, 5.5 ± 0.2 mmol/L, 3.8 ± 0.3 mmol/L, 2.6 ± 0.2 mmol/L and 7.2 ± 0.3 mmol/L.
In the case of “ASCNGVCSPFEMPPCGTSACRCIPVGLVIGYCRNPSG (disulfide 15-32, 3-20, 7-22; listed as Pisum sativum) [SEQ ID No. 3]”, in the test with normal mice [3] (Group A, tail vein injection), the “Blood glucose level at 15 min” value stood at 5.6 ± 0.3 mmol/L, the “Blood glucose level at 30 min” value is reported as 4.5 ± 0.2 mmol/L, the “Blood glucose level at 45 min” value is reported as 3.2 ± 0.1 mmol/L and the “Blood glucose level at 60 min” value came to 2.4 ± 0.2 mmol/L. For the same substance, in the test with normal mice [3] (Group A, tail vein injection), the “Blood glucose level prior” value is listed as 7.3 ± 0.5 mmol/L. Also, in the test on normal mice [3] (setting [5]), the “Blood glucose level at 15 min” value was found to be 5.2 ± 0.2 mmol/L, the “Blood glucose level at 30 min” value was determined as 3.5 ± 0.3 mmol/L, the “Blood glucose level at 45 min” value was found to be 2.8 ± 0.2 mmol/L and the “Blood glucose level at 60 min” value worked out at 2.1 ± 0.1 mmol/L. Besides, the “Blood glucose level prior” value in the test on normal mice [3] (setting [5]) was 6.2 ± 0.3 mmol/L. Besides, in the test with normal mice [3] (setting [6]), the “Blood glucose level at 15 min” value amounted to 6.3 ± 0.5 mmol/L, the “Blood glucose level at 30 min” value is reported as 4.8 ± 0.4 mmol/L, the “Blood glucose level at 45 min” value amounted to 3.5 ± 0.3 mmol/L and the “Blood glucose level at 60 min” value is 2.6 ± 0.2 mmol/L. Also, the “Blood glucose level prior” value in the test with normal mice [3] (setting [6]) was 8.1 ± 0.7 mmol/L.
Take “VSCNGVCSPFEMPPCGSSACRCIPYGLVVGNCRNPSG (disulfide 15-32, 3-20, 7-22) [SEQ ID No. 68]”: in the test with normal mice [2], the “Blood glucose level at 15 min” value is recorded as 5.5 ± 0.4 mmol/L, the “Blood glucose level at 30 min” value was found to be 4.2 ± 0.3 mmol/L, the “Blood glucose level at 45 min” value is recorded as 3.4 ± 0.4 mmol/L and the “Blood glucose level at 60 min” value is listed as 2.2 ± 0.1 mmol/L. In the test on normal mice [2], the “Blood glucose level prior” value amounted to 6.7 ± 0.6 mmol/L.
Turning to “ASCNGVCSPFEIPPCGSPLCRCIPVGLVIGNCRNPYG (disulfide 15-32, 3-20, 7-22) [SEQ ID No. 21]”, in the test on normal mice [2], the “Blood glucose level at 15 min” value is recorded as 6.7 ± 0.4 mmol/L, the “Blood glucose level at 30 min” value was 5.2 ± 0.3 mmol/L, the “Blood glucose level at 45 min” value was determined as 4.3 ± 0.2 mmol/L and the “Blood glucose level at 60 min” value is reported as 3.6 ± 0.1 mmol/L. Also, the “Blood glucose level prior” value with normal mice [2] was determined as 7.8 ± 0.4 mmol/L.
“ASCNGVCSPFEMoxPPCGSSACRCIPVGLLIGYCRNPSG (ASCNGVCSPFE[Met(O)]PPCGSSACRCIPVGLLIGYCRNPSG; disulfide 15-32, 3-20, 7-22; listed as Pisum sativum) [SEQ ID No. 6]”: in the test with normal mice [1], the “Blood glucose level at 15 min” value is listed as 5.6 ± 0.3 mmol/L, the “Blood glucose level at 30 min” value is given as 4.2 ± 0.3 mmol/L and the “Blood glucose level prior” value was 6.6 ± 0.4 mmol/L.
Consider “ASCNGVCSPFEMoxPPCGTSACRCIPVGLFIGYCRNPSG (ASCNGVCSPFE[Met(O)]PPCGTSACRCIPVGLFIGYCRNPSG; disulfide 15-32, 3-20, 7-22; listed as Pisum sativum) [SEQ ID No. 8]”, for which, in the test on normal mice [4] (setting [7]), the “Blood glucose level at 15 min” value is given as 5.1 ± 0.4 mmol/L, the “Blood glucose level at 30 min” value is given as 3.0 ± 0.4 mmol/L, the “Blood glucose level at 45 min” value is 2.2 ± 0.2 mmol/L and the “Blood glucose level at 60 min” value is recorded as 1.7 ± 0.1 mmol/L. In addition, the “Blood glucose level prior” value in the test with normal mice [4] (setting [7]) stood at 7.4 ± 0.5 mmol/L. For the same substance, in the test on normal mice [4] (setting [8]), the “Blood glucose level at 15 min” value is recorded as 5.2 ± 0.4 mmol/L, the “Blood glucose level at 30 min” value amounted to 4.3 ± 0.5 mmol/L, the “Blood glucose level at 45 min” value is 3.2 ± 0.3 mmol/L and the “Blood glucose level at 60 min” value came to 2.6 ± 0.2 mmol/L. Also, in the test with normal mice [4] (setting [8]), the “Blood glucose level prior” value worked out at 7.1 ± 0.6 mmol/L. Further, in the test with normal mice [4] (setting [9]), the “Blood glucose level at 15 min” value amounted to 6.2 ± 0.3 mmol/L, the “Blood glucose level at 30 min” value stood at 4.9 ± 0.3 mmol/L, the “Blood glucose level at 45 min” value worked out at 3.8 ± 0.2 mmol/L and the “Blood glucose level at 60 min” value was 4.6 ± 0.2 mmol/L. For the same substance, the “Blood glucose level prior” value in the test on normal mice [4] (setting [9]) stood at 7.3 ± 0.4 mmol/L. Moreover, the “hypoglycemic activity (conclusion)” value with normal mice [4] (normal mice, subcutaneous injection) is on record as “explicit hypoglycemic activity”.
In the case of “ASCNGVCSPFEMoxPPCGTSACRCIPVGLVVGYCRNPSG (ASCNGVCSPFE[Met(O)]PPCGTSACRCIPVGLVVGYCRNPSG; disulfide 15-32, 3-20, 7-22; listed as Pisum sativum) [SEQ ID No. 2]”, in the test with normal mice [1], the “Blood glucose level at 15 min” value was 6.5 ± 0.2 mmol/L, the “Blood glucose level at 30 min” value worked out at 4.6 ± 0.3 mmol/L and the “Blood glucose level prior” value amounted to 7.2 ± 0.3 mmol/L.
Regarding “VSCNGVCSPFDMPPCGTSACRCIPAGLFIGYCRNPSG (disulfide 15-32, 3-20, 7-22) [SEQ ID No. 61]”, in the test with normal mice [2], the “Blood glucose level at 15 min” value came out at 5.6 ± 0.4 mmol/L, the “Blood glucose level at 30 min” value is on record as 4.3 ± 0.3 mmol/L, the “Blood glucose level at 45 min” value is on record as 3.6 ± 0.2 mmol/L and the “Blood glucose level at 60 min” value turned out to be 2.3 ± 0.1 mmol/L. The “Blood glucose level prior” value in the test on normal mice [2] was 6.9 ± 0.4 mmol/L.
Regarding “ASCNGVCSPFDIPPCGTPLCRCIPVGLVIGNCRNPYG (disulfide 15-32, 3-20, 7-22) [SEQ ID No. 13]”, in the test with normal mice [2], the “Blood glucose level at 15 min” value is reported as 6.1 ± 0.3 mmol/L, the “Blood glucose level at 30 min” value came to 4.4 ± 0.4 mmol/L, the “Blood glucose level at 45 min” value amounted to 3.5 ± 0.3 mmol/L and the “Blood glucose level at 60 min” value turned out to be 2.6 ± 0.3 mmol/L. Besides, in the test with normal mice [2], the “Blood glucose level prior” value amounted to 7.4 ± 0.6 mmol/L.
With “ASCNGVCSPFDMPPCGTSACRCIPAGLFIGKCRNPYG (disulfide 15-32, 3-20, 7-22) [SEQ ID No. 17]”, in the test on normal mice [2], the “Blood glucose level at 15 min” value was 6.6 ± 0.5 mmol/L, the “Blood glucose level at 30 min” value was 4.9 ± 0.4 mmol/L, the “Blood glucose level at 45 min” value worked out at 3.6 ± 0.3 mmol/L and the “Blood glucose level at 60 min” value is recorded as 3.0 ± 0.2 mmol/L. The “Blood glucose level prior” value with normal mice [2] worked out at 8.2 ± 0.7 mmol/L.
